{"source": "patent US4839466A", "about": "“Insulin activity messengers” (The Rockefeller University, priority 1987, dated 1989)", "key": {"BC3 Hl cells": {"system": "BC3 Hl cells", "assay": "Diacylglycerol and phosphatidic acid production in labeled BC3 Hl myocytes", "assay_type": "cell-based, murine", "procedure": "FIG. 12--Time Course of Diacylglycerol and Phosphatidic Acid Production in Response to Insulin. Myocytes were incubated for 20 hrs. in serum free DMEM with [9,10^3 H]myristic acid (New England Nuclear), complexed 1:1 to bovine serum albumin. Insulin was added to cells in fresh media for the designated intervals, and reactions were stopped by removal of media and addition of 1 ml chloroform/methanol/1N HCl (200:100:1). 0.6ml H2 O was added and upper aqueous phases were discarded following centrifugation at 500×g for 5 minutes. The lower, organic phases were dried under N2 and resuspended in 1 ml diethyl ether followed by addition of 1 […]. The upper ether phase was aspirated and the lower phase reextracted with 1 ml diethyl ether. The combined ether phases, containing diacylglycerol, were dried under N2, resuspended in chloroform and spotted on silica gel G plates which were preactivated at 60° C. for 1 hr. Plates were twice developed in petroleum ether/diethyl ether/glacial acetic acid (70:30:2). Five ug of unlabeled dimyristoylglycerol were added to each sample. Spots were visualized by iodine staining. To the lower aqueous phases from the ether extraction were added 1 ml of chloroform/methanol (2:1). Following centrifugation, the resulting upper aqueous phases were discarded and the lower organic phases dried under N2, resuspended in chloroform/methanol/H2 O (9:7:2) and spotted on \"soft plus\" silica gel plates. These were developed in chloroform/pyridine/70% formic acid (50:30:7), and phosphatidic acid was identified by an iodine stained standard. Lipids were scraped and radioactivity determined in a liquid scintillation counter.\nBC3 Hl cells were cultured on collagen coated multiwell plates or petri dishes in Dulbecco's minimal essential medium (DMEM) supplemented with 20% Nu serum or 10% fetal calf serum. Cells were grown to maximal density and confluence, at which time they become responsive to insulin. Radiolabeled precursors were added for 20 hrs. in serum-free medium. [^3 H]Myristic and arachidonic acids were complexed 1:1 to bovine serum albumin prior to addition.\nFollowing preincubations with the appropriate isotopes, cells were resuspended in DMEM without serum and treated with 10 nM insulin at the designated intervals. Reactions were terminated by the addition of 1 ml chloroform/methanol/1N HCl (200:100:1), followed by 0.5 ml 10 mM formic acid. Following centrifugation at 500 x g for 5 min., the upper phase was discarded. For phospholipid analyses, the lower, organic phase was dried under N2, resuspended in chloroform/methanol/H2 O (9:7:2) and spotted on oxalate impregnated silica gel G plates. These were sequentially developed in chloroform/acetone/methanol/glacial acidic acid/H2 O (10:4:2:2:1) and chloroform/methanol/4N NH4 OH (45:35:10). One cm regions were scraped and eluted with chloroform/methanol (2:1) and counted. Phosphoinositide standards were identified by iodine staining.\nFor analysis of neutral lipids, the chloroform/methanol organic phases were dried under N2 and resuspended in 1 ml diethyl ether followed by addition of 1 ml 50 mM formic acid. The upper ether phase was aspirated and the lower aqueous phase was reextracted with 1 ml diethyl ether. The pooled ether phases were dried under N2, resuspended in chloroform and spotted on silica gel G plates which were preactiviated at 60° C. for 1 hr. Plates were twice developed in petroleum ether/diethyl ether/glacial acetic acid (70:30:2). Five ug of unlabeled dimyristoyl glycerol, myristic acid and monomyristoyl glycerol were added as carriers to each sample."}, "cAMP phosphodiesterase": {"system": "cAMP phosphodiesterase", "assay": "Generation of PDE messenger from liver membranes by insulin or PI-PLC; extracts assayed on cAMP phosphodiesterase", "assay_type": "biochemical, rat", "procedure": "These were generated from bovine liver particulate fractions by a modification of previously described methods. Particulate fraction was prepared from 100 g of bovine liver, and suspended in […] ammonium bicarbonate, pH 7.4. (Buffer A) at a final concentration of 2-4 mg protein/ml. This solution was incubated with […] for 10 min at 37° C., acidified to pH 4.0 with formic acid and sedimented at 45,000 g for 20 min. An equal volume of chloroform/methanol (2:1) was added to the supernatant, and the upper phase was aspirated and methanol was evaporated.\nIn the tests the results of which are tabulated above, liver membranes were treated as indicated for 10 min at 37° C., centrifuged and supernatants were extracted and purified up to and including the Dowex 50WX-4 step as described earlier herein under \"Experimental Frocedures\".\nPartially purified extracts were assayed for ability to modulate cAMP phosphodiesterase. Basal activity was 56.2 pmoles/mg protein^-1 -min^-1."}}, "data": [{"substance": "Insulin: monocomponent bovine insulin", "values": [{"measurement": "generation of [3H]stearyl diacylglycerol", "setting": "BC3 Hl cells", "value": "no detectable effect"}, {"measurement": "change in [3H]myristoyl diacylglycerol", "setting": "BC3 Hl cells; [3H]myristate labeled cells", "value": "rapid increase"}, {"measurement": "time of maximal increase in labeled diacylglycerol", "setting": "BC3 Hl cells; [3H]myristate labeled cells", "value": 1, "unit": "min"}, {"measurement": "change in [3H]arachidonyl diacylglycerol", "setting": "BC3 Hl cells; cells incubated with [3H]arachidonic acid", "value": "slow increase"}, {"measurement": "increase in levels of [3H]myristate phosphatidic acid", "setting": "BC3 Hl cells; insulin, achieved by 5 minutes", "value": 2, "unit": "fold"}, {"measurement": "maximal increase of labeled diacylglycerol over basal", "setting": "BC3 Hl cells; insulin, by 5-10 minutes", "value": 50, "unit": "%"}, {"measurement": "increase in [3H]myristate diacylglycerol", "setting": "BC3 Hl cells; insulin, within 1 minute", "value": 40, "unit": "%"}, {"measurement": "stimulation/increase of production of PDE modulating activity from membranes", "setting": "cAMP phosphodiesterase; after partial purification, PI-PLC 1.0 ug/ml", "value": 4, "unit": "fold"}, {"measurement": "PDE Activity", "setting": "cAMP phosphodiesterase; extract of liver membranes treated 10 min at 37° C. (1.0 nM Insulin, PI-PLC), purified up to Dowex 50WX-4, basal 56.2, untreated membranes 78.5", "value": 138.0, "unit": "pmol mg protein^-1 min^-1"}]}]}
